Results as given in US11840686B2, “Modulation of prekallikrein (PKK) expression” (Ionis Pharmaceuticals, Inc., priority 2013, dated 2023).
Strand notation (5' to 3'): a small letter for the sugar, then the base; units joined by * are phosphorothioate-linked, units joined directly phosphodiester-linked; [ ] holds rarer units or linkages, { } end groups; capitals alone tell only the bases. e = 2'-O-(2-methoxyethyl) (MOE); [5mC] = 5-methylcytosine; d = 2'-deoxy (DNA)

Key:
human PKK mRNA [1] = test: Antisense inhibition of human PKK mRNA in HepaRG cells, 5,000 nM (Example 2); assay type: cell-based
Summary of the method: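 Percent inhibition of PKK mRNA is relative to untreated control, with qRT-PCR (probe set RTS3454) values adjusted to total RNA by RIBOGREEN. Oligonucleotides, fully phosphorothioate 2′-MOE gapmers, were delivered at 5,000 nM by electroporation into 20,000 HepaRG cells/well for about 24 h.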

human PKK mRNA [2] = test: Dose-dependent antisense inhibition of human PKK in HepaRG cells, 0.19-5.00 uM (Example 5); assay type: cell-based; details: HepaRG cells; for percent inhibition of PKK at 0.19 μM / percent inhibition of PKK at 0.56 μM / percent inhibition of PKK at 1.67 μM / percent inhibition of PKK at 5.00 μM: electroporation, approximately 16 hours; for percent inhibition of PKK mRNA, 0.19 μM: 0.19 μM antisense oligonucleotide; for percent inhibition of PKK mRNA, 0.56 μM: 0.56 μM antisense oligonucleotide; for percent inhibition of PKK mRNA, 1.67 μM: 1.67 μM antisense oligonucleotide; for percent inhibition of PKK mRNA, 5.00 μM: 5.00 μM antisense oligonucleotide
Summary of the method: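 PKK mRNA knockdown was measured by real-time PCR (primer probe set RTS3454) about 16 h after electroporating 20,000 HepaRG cells per well with oligonucleotide at four doses from 0.19 to 5.00 μM. Levels were adjusted to RIBOGREEN-measured total RNA, and IC50 values were calculated.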

[3] = 4 point dose response, Table 38
[4] = human PKK mRNA, HepaRG cells, 5,000 nM antisense oligonucleotide, Table 18
[5] = 4 point dose response, Table 40

547006 (e[5mC]*eG*e[5mC]*e[5mC]*eA*dT*d[5mC]*dT*dG*d[5mC]*d[5mC]*d[5mC]*dT*dG*dT*eA*e[5mC]*eA*eG*eA; antisense) [compound 547006]
% inhibition (human PKK mRNA [1]; HepaRG cells, 5,000 nM antisense oligonucleotide, 5-10-5 gapmers, Table 17): 39%
percent inhibition of PKK at 0.19 μM (human PKK mRNA [2]; Table 38): 0%
percent inhibition of PKK at 0.56 μM (human PKK mRNA [2]; Table 38): 0%
percent inhibition of PKK at 1.67 μM (human PKK mRNA [2]; Table 38): 54%
percent inhibition of PKK at 5.00 μM (human PKK mRNA [2]; Table 38): 77%
IC50 (human PKK mRNA [2]; [3]): 1500 nM

546877 (e[5mC]*eA*e[5mC]*eT*eG*dT*d[5mC]*d[5mC]*dT*dA*dT*dA*dT*d[5mC]*dA*e[5mC]*eT*eG*eT*eA; antisense) [compound 546877]
% inhibition (human PKK mRNA [1]; human PKK mRNA in HepaRG cells, 5-10-5 gapmers, Table 14): 88%
percent inhibition of PKK at 0.19 μM (human PKK mRNA [2]; Table 37): 0%
percent inhibition of PKK at 0.56 μM (human PKK mRNA [2]; Table 37): 19%
percent inhibition of PKK at 1.67 μM (human PKK mRNA [2]; Table 37): 75%
percent inhibition of PKK at 5.00 μM (human PKK mRNA [2]; Table 37): 80%
IC50 (human PKK mRNA [2]; 4 point dose response, Table 37): 1300 nM

548756 (antisense eG*eT*eA*eT*d[5mC]*dA*d[5mC]*dT*dG*dT*dA*d[5mC]*dT*eA*eG*eT*eT) [compound 548756]
% inhibition (human PKK mRNA [1]; [4]): 81%
percent inhibition of PKK at 0.19 μM (human PKK mRNA [2]; Table 40): 0%
percent inhibition of PKK at 0.56 μM (human PKK mRNA [2]; Table 40): 4%
percent inhibition of PKK at 1.67 μM (human PKK mRNA [2]; Table 40): 16%
percent inhibition of PKK at 5.00 μM (human PKK mRNA [2]; Table 40): 86%
IC50 (human PKK mRNA [2]; [5]): > 5000 nM

546897 (eA*eG*eT*eA*eT*d[5mC]*dA*d[5mC]*dT*dG*dT*d[5mC]*d[5mC]*dT*dA*eT*eG*eT*e[5mC]*eA; antisense) [compound 546897]
% inhibition (human PKK mRNA [1]; human PKK mRNA, HepaRG cells, 5-10-5 motif oligonucleotides targeting SEQ ID NO: 1 and 10): 90%
percent inhibition of PKK at 0.19 μM (human PKK mRNA [2]; Table 36): 40%
percent inhibition of PKK at 0.56 μM (human PKK mRNA [2]; Table 36): 56%
percent inhibition of PKK at 1.67 μM (human PKK mRNA [2]; Table 36): 71%
percent inhibition of PKK at 5.00 μM (human PKK mRNA [2]; Table 36): 95%
IC50 (human PKK mRNA [2]; 4 point dose response, Table 36): 400 nM
percent inhibition of PKK mRNA, 0.19 μM (human PKK mRNA [2]): 16%
percent inhibition of PKK mRNA, 0.56 μM (human PKK mRNA [2]): 17%
percent inhibition of PKK mRNA, 1.67 μM (human PKK mRNA [2]): 69%
percent inhibition of PKK mRNA, 5.00 μM (human PKK mRNA [2]): 97%
IC50 (human PKK mRNA [2]; 0.19-5.00 μM): 800 nM

547341 (antisense eG*eA*e[5mC]*eT*e[5mC]*d[5mC]*dT*d[5mC]*dT*d[5mC]*dA*dT*dA*dT*d[5mC]*eA*eA*e[5mC]*eT*e[5mC]) [compound 547341]
% inhibition (human PKK mRNA [1]; HepaRG cells, electroporation with 5,000 nM antisense oligonucleotide, approximately 24 hours, PKK mRNA by RT-PCR (RTS3454), relative to untreated control cells, Table 6 experiment): 87%
percent inhibition of PKK at 0.19 μM (human PKK mRNA [2]; Table 39): 36%
percent inhibition of PKK at 0.56 μM (human PKK mRNA [2]; Table 39): 58%
percent inhibition of PKK at 1.67 μM (human PKK mRNA [2]; Table 39): 91%
percent inhibition of PKK at 5.00 μM (human PKK mRNA [2]; Table 39): 95%
IC50 (human PKK mRNA [2]; 4 point dose response, Table 39): 300 nM
percent inhibition of PKK mRNA, 0.19 μM (human PKK mRNA [2]): 45%
percent inhibition of PKK mRNA, 0.56 μM (human PKK mRNA [2]): 44%
percent inhibition of PKK mRNA, 1.67 μM (human PKK mRNA [2]): 81%
percent inhibition of PKK mRNA, 5.00 μM (human PKK mRNA [2]): 95%
IC50 (human PKK mRNA [2]; 0.19-5.00 μM): 600 nM

548753 (antisense eT*e[5mC]*eA*e[5mC]*dT*dG*dT*dA*d[5mC]*dT*dA*dG*dT*dT*eT*e[5mC]*e[5mC]*eT) [compound 548753]
% inhibition (human PKK mRNA [1]; [4]): 82%
percent inhibition of PKK at 0.19 μM (human PKK mRNA [2]; Table 40): 0%
percent inhibition of PKK at 0.56 μM (human PKK mRNA [2]; Table 40): 23%
percent inhibition of PKK at 1.67 μM (human PKK mRNA [2]; Table 40): 49%
percent inhibition of PKK at 5.00 μM (human PKK mRNA [2]; Table 40): 84%
IC50 (human PKK mRNA [2]; [5]): 1500 nM

547294 (antisense e[5mC]*eT*e[5mC]*eA*eT*d[5mC]*dT*dG*dG*d[5mC]*dA*dG*dT*dA*dT*eT*eG*eG*eG*e[5mC]) [compound 547294]
% inhibition (human PKK mRNA [1]; HepaRG cells, electroporation with 5,000 nM antisense oligonucleotide, approximately 24 hours, PKK mRNA by RT-PCR (RTS3454), relative to untreated control cells, Table 5 experiment): 85%
percent inhibition of PKK at 0.19 μM (human PKK mRNA [2]; Table 38): 28%
percent inhibition of PKK at 0.56 μM (human PKK mRNA [2]; Table 38): 59%
percent inhibition of PKK at 1.67 μM (human PKK mRNA [2]; Table 38): 87%
percent inhibition of PKK at 5.00 μM (human PKK mRNA [2]; Table 38): 86%
IC50 (human PKK mRNA [2]; [3]): 400 nM
percent inhibition of PKK mRNA, 0.19 μM (human PKK mRNA [2]): 4%
percent inhibition of PKK mRNA, 0.56 μM (human PKK mRNA [2]): 70%
percent inhibition of PKK mRNA, 1.67 μM (human PKK mRNA [2]): 84%
percent inhibition of PKK mRNA, 5.00 μM (human PKK mRNA [2]): 91%
IC50 (human PKK mRNA [2]; 0.19-5.00 μM): 600 nM
